Common to all, as to assay type: biochemical
The target in one assay is T1, Src (Homo sapiens, UniProt P12931).
T1 construct: Kinases are expressed as either kinase domains or full length constructs; made in house
Nature of the assay: Kinase inhibition assay (33P transfer), Src. Conditions: Table 6, Src-1 kinase inhibition class. The method in brief: (§1)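 Recombinant kinase domains or full-length GST- or His-tagged constructs, from E. coli or baculovirus/High Five cells, sometimes with regulatory polypeptides. Transfer of 33P from ATP to plate-bound poly(Glu,Tyr) 4:1 or poly(Arg,Ser) 3:1 counted by liquid scintillation after phosphoric acid wash; IC50 is the concentration halving incorporation.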

The next assay has as its target T2, Fyn (Homo sapiens, UniProt P06241).
T2 construct: Kinases are expressed as either kinase domains or full length constructs; made in house
Put plainly: Kinase inhibition assay (33P transfer), Fyn. The note with it: read-out: Fyn-1. The method in brief:
as §1

Another assay deals with T3, Itk (Homo sapiens, UniProt Q08881).
T3 construct: Kinases are expressed as either kinase domains or full length constructs; made in house
T3 sequence (Q08881 1-620): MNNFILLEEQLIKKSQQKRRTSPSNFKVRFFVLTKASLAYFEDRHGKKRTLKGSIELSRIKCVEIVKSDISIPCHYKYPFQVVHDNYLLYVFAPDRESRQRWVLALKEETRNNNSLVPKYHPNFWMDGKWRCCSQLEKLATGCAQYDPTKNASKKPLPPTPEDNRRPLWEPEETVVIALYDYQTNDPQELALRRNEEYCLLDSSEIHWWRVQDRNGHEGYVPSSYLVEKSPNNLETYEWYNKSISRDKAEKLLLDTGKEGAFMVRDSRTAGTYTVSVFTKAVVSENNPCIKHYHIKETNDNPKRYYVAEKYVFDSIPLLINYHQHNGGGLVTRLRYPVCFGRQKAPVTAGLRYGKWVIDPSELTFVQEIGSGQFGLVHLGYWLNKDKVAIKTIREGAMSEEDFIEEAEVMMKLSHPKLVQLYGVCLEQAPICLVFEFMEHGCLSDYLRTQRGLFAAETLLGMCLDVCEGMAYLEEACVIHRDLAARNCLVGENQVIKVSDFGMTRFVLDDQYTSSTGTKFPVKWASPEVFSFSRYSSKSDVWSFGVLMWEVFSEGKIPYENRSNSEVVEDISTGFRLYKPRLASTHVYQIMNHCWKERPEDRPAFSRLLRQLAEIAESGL
Nature of the assay: Kinase inhibition assay (33P transfer), Itk. The note with it: Table 3; read-out: Itk-1. The method in brief:
as §1

The target in the next assay is T4, EGFR (Homo sapiens, UniProt P00533).
T4 construct: Kinases are expressed as either kinase domains or full length constructs; made in house
T4 sequence (P00533 25-1210, species assumed): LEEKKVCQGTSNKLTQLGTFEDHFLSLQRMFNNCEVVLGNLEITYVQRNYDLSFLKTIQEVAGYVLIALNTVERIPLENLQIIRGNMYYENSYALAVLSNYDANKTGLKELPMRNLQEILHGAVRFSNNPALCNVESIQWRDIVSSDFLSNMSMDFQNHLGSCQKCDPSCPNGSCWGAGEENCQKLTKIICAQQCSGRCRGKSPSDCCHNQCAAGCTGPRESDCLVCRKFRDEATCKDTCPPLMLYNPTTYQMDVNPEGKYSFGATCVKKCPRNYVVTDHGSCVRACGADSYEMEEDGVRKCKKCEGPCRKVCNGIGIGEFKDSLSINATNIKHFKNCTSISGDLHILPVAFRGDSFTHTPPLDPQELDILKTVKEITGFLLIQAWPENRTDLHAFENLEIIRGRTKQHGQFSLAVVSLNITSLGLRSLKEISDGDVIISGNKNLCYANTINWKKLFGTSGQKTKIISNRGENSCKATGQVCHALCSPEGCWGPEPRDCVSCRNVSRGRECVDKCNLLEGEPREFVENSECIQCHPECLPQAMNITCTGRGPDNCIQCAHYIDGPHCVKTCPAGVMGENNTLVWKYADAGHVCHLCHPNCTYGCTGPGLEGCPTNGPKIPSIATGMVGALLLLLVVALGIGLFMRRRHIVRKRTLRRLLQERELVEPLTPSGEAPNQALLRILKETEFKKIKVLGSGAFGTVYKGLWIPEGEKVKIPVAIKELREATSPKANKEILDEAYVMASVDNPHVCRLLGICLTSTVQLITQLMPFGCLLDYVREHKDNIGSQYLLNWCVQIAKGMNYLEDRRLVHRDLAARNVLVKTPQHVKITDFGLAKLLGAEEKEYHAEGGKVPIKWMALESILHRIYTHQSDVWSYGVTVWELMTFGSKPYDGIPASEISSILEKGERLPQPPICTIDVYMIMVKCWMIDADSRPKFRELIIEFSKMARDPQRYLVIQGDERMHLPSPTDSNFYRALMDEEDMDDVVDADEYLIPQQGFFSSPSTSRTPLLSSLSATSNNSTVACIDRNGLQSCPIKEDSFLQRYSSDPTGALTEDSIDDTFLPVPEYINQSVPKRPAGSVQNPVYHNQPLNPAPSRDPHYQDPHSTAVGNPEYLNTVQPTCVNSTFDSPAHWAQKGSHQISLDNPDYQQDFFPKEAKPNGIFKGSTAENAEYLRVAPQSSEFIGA
Put plainly: Kinase inhibition assay (33P transfer), EGFR. Conditions: Table 2, kinase inhibition class; read-out: EGFR-1. The method in brief: as §1

A further assay concerns the target T5, Tek (Homo sapiens, UniProt Q02763).
T5 construct: Kinases are expressed as either kinase domains or full length constructs; made in house
Nature of the assay: Kinase inhibition assay (33P transfer), Tek. The note with it: read-out: Tek-1. In short, it runs like this:
as §1

The target of another assay is T6, EPHB4 (Homo sapiens, UniProt P54760).
T6 construct: Kinases are expressed as either kinase domains or full length constructs; made in house
T6 sequence (P54760 16-987): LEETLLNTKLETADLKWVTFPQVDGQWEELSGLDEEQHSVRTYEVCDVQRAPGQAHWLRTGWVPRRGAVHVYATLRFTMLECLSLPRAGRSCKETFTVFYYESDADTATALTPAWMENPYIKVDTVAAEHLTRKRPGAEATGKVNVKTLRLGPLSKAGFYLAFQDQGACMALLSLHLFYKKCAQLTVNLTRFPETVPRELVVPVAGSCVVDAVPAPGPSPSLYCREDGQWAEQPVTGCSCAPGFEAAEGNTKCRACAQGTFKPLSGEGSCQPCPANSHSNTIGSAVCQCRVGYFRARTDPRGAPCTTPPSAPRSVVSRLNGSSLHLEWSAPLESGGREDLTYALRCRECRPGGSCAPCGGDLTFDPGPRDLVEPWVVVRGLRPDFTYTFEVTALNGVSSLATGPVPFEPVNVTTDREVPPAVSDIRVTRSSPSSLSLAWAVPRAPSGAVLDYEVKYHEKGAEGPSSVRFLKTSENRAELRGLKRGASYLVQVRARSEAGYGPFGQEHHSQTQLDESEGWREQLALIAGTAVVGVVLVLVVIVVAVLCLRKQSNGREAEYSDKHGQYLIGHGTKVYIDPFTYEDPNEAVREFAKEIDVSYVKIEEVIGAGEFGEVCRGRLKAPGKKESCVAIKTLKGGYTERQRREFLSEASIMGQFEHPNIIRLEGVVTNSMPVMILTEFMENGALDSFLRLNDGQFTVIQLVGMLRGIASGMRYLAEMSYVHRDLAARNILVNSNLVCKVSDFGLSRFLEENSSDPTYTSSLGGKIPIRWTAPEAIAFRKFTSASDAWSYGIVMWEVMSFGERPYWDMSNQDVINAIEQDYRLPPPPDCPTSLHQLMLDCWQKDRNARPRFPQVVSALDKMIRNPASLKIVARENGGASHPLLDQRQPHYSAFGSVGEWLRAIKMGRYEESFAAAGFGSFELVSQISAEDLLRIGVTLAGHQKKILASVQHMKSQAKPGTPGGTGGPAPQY
Nature of the assay: Kinase inhibition assay (33P transfer), EPHB4. Conditions: read-out: EPHB4-1.

A further assay has as its target T7, ErbB4 (Homo sapiens, UniProt Q15303).
T7 construct: Kinases are expressed as either kinase domains or full length constructs; made in house
Nature of the assay: Kinase inhibition assay (33P transfer), ErbB4. The note with it: read-out: ErbB4-1.

A further assay concerns the target T8, Ret-1 (Homo sapiens, UniProt P07949).
T8 construct: Kinases are expressed as either kinase domains or full length constructs; made in house
Put plainly: Kinase inhibition assay (33P transfer), Ret. Conditions: Table 6, Ret-1 kinase inhibition class.

SMILES strings stand for the structures.

T7 sequence (Q15303 26-1308, species assumed): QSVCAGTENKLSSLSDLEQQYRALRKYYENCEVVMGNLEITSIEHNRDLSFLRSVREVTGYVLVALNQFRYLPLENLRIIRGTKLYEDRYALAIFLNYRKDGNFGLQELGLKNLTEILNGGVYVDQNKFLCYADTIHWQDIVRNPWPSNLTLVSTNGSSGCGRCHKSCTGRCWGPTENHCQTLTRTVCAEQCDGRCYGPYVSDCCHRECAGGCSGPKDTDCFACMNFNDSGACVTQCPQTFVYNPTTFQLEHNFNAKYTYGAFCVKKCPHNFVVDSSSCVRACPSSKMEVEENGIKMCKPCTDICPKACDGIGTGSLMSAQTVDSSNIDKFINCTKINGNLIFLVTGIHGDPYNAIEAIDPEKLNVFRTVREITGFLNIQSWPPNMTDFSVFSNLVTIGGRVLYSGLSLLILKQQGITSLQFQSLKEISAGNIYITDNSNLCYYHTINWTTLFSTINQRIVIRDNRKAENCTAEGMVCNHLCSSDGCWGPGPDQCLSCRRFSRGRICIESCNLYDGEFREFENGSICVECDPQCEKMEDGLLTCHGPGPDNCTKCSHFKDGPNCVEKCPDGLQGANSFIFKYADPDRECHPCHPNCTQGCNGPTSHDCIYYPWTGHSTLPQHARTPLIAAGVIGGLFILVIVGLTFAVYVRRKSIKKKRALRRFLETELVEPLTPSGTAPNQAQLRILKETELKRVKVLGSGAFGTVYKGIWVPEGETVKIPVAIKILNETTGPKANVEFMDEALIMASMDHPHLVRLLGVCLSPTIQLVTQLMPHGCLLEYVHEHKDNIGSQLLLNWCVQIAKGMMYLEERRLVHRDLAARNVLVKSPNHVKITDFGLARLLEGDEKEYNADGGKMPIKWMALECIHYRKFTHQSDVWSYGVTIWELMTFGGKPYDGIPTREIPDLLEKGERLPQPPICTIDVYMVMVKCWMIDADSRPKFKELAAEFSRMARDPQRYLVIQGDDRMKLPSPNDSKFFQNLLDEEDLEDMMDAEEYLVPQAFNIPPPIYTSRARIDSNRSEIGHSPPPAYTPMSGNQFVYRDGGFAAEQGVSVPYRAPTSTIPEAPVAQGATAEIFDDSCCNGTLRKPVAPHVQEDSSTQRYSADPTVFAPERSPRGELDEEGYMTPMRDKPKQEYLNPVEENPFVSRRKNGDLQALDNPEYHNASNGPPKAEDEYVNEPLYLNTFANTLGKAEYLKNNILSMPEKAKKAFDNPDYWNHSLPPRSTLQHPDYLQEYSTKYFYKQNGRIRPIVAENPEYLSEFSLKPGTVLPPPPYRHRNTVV
T5 sequence (Q02763 23-1124, species assumed): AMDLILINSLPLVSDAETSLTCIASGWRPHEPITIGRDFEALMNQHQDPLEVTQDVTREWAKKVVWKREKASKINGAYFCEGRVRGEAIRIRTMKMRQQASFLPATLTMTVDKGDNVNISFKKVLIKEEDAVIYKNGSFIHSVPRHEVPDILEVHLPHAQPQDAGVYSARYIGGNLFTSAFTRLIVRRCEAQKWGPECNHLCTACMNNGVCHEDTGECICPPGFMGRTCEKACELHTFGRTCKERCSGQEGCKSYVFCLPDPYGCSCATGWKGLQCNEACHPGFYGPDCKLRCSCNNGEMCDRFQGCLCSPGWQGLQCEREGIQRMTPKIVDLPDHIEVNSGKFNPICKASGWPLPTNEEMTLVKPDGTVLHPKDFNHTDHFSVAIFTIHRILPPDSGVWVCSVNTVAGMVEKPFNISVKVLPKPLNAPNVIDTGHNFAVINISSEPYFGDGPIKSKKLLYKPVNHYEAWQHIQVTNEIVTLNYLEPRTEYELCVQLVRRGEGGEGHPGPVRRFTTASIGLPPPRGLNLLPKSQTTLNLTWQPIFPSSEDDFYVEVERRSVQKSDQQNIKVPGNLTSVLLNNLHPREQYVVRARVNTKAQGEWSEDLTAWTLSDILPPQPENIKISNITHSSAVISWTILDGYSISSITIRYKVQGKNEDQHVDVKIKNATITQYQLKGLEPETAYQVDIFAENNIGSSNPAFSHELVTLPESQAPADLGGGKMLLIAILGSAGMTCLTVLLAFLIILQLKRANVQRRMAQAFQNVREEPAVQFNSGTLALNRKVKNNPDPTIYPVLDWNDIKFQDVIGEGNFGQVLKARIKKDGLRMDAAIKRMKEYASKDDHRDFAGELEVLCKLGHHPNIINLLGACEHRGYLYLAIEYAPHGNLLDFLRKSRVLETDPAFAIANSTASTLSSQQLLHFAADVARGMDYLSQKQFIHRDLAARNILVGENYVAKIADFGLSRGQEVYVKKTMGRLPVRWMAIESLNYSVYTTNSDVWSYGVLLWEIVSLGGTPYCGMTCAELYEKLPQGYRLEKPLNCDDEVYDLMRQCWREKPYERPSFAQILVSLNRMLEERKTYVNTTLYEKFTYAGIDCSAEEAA
T1 sequence (P12931 whole entry, species assumed, the tested form may be a part): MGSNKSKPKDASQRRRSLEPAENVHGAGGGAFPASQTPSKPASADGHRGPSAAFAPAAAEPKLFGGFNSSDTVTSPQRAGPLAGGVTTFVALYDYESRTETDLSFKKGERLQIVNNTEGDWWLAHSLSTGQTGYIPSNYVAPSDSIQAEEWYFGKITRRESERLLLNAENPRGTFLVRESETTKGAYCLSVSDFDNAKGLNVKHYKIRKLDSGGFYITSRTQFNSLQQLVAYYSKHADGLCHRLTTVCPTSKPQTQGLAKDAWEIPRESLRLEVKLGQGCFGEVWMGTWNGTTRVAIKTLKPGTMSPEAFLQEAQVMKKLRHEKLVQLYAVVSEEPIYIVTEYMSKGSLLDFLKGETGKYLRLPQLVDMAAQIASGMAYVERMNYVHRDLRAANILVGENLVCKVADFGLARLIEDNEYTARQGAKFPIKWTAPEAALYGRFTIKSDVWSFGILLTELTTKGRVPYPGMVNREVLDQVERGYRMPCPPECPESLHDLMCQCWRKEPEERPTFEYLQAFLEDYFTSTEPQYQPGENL
T2 sequence (P06241 whole entry, species assumed, the tested form may be a part): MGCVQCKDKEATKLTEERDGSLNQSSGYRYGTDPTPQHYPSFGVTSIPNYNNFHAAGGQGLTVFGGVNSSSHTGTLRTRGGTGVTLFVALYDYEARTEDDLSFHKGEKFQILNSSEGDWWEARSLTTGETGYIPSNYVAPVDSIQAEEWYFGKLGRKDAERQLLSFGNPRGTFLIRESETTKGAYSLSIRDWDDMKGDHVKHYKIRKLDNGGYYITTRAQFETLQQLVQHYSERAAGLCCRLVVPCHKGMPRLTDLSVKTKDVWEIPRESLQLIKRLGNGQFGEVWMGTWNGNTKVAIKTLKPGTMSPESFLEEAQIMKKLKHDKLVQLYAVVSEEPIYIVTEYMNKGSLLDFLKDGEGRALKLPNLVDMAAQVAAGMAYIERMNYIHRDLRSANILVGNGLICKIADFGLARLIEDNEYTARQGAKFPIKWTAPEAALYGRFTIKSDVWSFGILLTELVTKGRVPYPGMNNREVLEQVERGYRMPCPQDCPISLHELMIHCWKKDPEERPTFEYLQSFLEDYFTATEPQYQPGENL

On to `COc1cc(Nc2ncnc(Nc3ccc(Cl)cc3F)n2)cc(OC)c1OC` [Compound 306], for which the IC50 on Src is 0.986 to 5.91 µM; at Fyn, 0.986 to 5.91 µM; at Itk it was over 11.1 µM; at EGFR, under 0.986 µM; on Tek it was over 11.1 µM; at EPHB4 it was 0.986 to 5.91 µM. The IC50 was over 11.1 µM on ErbB4 and under 0.986 µM against Ret-1.

Consider `COc1cc(Nc2ncnc(Nc3cc(-c4ccco4)n[nH]3)n2)cc(OC)c1OC` [Compound 308], for which the IC50 against Src is under 0.977 µM; at Fyn, under 0.977 µM; at Itk, 0.977 to 5.86 µM; at EGFR it was under 0.977 µM; at Tek, 5.86 to 8.55 µM; on EPHB4, under 0.977 µM. Besides, the IC50 is 0.977 to 5.86 µM on ErbB4 and under 0.977 µM against Ret-1.

As to `COc1cc(Nc2ncnc(Nc3nnc(-c4ccccc4)[nH]3)n2)cc(OC)c1OC` [Compound 311], the IC50 against Src, on Fyn, at Itk, at EGFR, on Tek and at EPHB4 was over 10.7 µM in each case. Further, the IC50 on ErbB4 and against Ret-1 was over 10.7 µM throughout.

`COc1cc(Nc2ncnc(Nc3cc(C(C)(C)C)[nH]n3)n2)cc(OC)c1OC` [Compound 313]: the IC50 against Src was under 1 µM; at Fyn it was 1 to 6.01 µM; at Itk it was 6.01 to 8.76 µM; at EGFR, 1 to 6.01 µM; on Tek, over 11.3 µM; at EPHB4 it was 1 to 6.01 µM. Also, the values for the IC50 at ErbB4 and against Ret-1 were under 1 µM and 1 to 6.01 µM, respectively.

On to `COc1cc(Nc2ncnc(N3CCCC4CCCCC43)n2)cc(OC)c1OC` (stereo not shown) [Compound 314], for which the IC50 against Src is 1 to 6.01 µM; on Fyn it was 1 to 6.01 µM; at Itk, 1 to 6.01 µM; at EGFR, under 1 µM; at Tek, 1 to 6.01 µM; at EPHB4, over 11.3 µM. Further, the IC50 on ErbB4 was 1 to 6.01 µM; against Ret-1 it was over 11.3 µM.

For `COC(=O)c1sccc1Nc1ncnc(Nc2cc(OC)c(OC)c(OC)c2)n1` [Compound 315], the IC50 on Src, on Fyn, at Itk, at EGFR, on Tek and on EPHB4 was over 10.8 µM throughout. Besides, the IC50 on ErbB4 was 0.958 to 5.75 µM; at Ret-1, over 10.8 µM.

Take `COc1cc(Nc2ncnc(Nc3cc(F)ccc3F)n2)cc(OC)c1OC` [Compound 316]: the IC50 is 8.99 to 11.6 µM at Src; 8.99 to 11.6 µM at Fyn; over 11.6 µM at Itk; 1.03 to 6.16 µM at EGFR; over 11.6 µM at Tek; 8.99 to 11.6 µM on EPHB4. In addition, the IC50 at ErbB4 was over 11.6 µM; at Ret-1, 1.03 to 6.16 µM.

`COc1cc(Nc2ncnc(Nc3cc(-c4cccs4)n[nH]3)n2)cc(OC)c1OC` [Compound 318]: the IC50 at Src was under 0.94 µM; at Fyn, under 0.94 µM; on Itk, 5.64 to 8.23 µM; at EGFR it was under 0.94 µM; on Tek, 5.64 to 8.23 µM; at EPHB4 it was under 0.94 µM. Besides, the IC50 on ErbB4 and against Ret-1 was under 0.94 µM in each case.

In the case of `COc1cc(Nc2ncnc(N(CC(=O)O)c3ccc4c(c3)OCO4)n2)cc(OC)c1OC` [Compound 319], the IC50 was over 9.88 µM against Src; over 9.88 µM at Fyn; over 9.88 µM at Itk; 0.878 to 5.27 µM at EGFR; over 9.88 µM at Tek; over 9.88 µM on EPHB4. In addition, the IC50 on ErbB4 and against Ret-1 was over 9.88 µM throughout.

With `COc1ccc(Nc2ncnc(N(CC(=O)O)c3ccc4c(c3)OCO4)n2)cc1OC` [Compound 320], the IC50 is over 10.6 µM on Src; over 10.6 µM on Fyn; over 10.6 µM at Itk; 0.94 to 5.64 µM at EGFR; over 10.6 µM on Tek; over 10.6 µM at EPHB4. In addition, the IC50 on ErbB4 and at Ret-1 was over 10.6 µM each time.

As to `COCCOc1ccc(Nc2ncnc(Nc3ccc4[nH]ccc4c3)n2)cc1OCCOC` [Compound 321], the IC50 at Src was 0.888 to 5.33 µM; on Fyn it was over 9.99 µM; on Itk, over 9.99 µM; on EGFR, under 0.888 µM; at Tek, over 9.99 µM; on EPHB4 it was over 9.99 µM. For the same molecule, the IC50 on ErbB4 is over 9.99 µM; against Ret-1 it was 0.888 to 5.33 µM.

Turning to `COc1cc(Nc2ncnc(-n3c(=O)[nH]c4ccccc43)n2)cc(OC)c1OC` [Compound 325], the IC50 at Src is over 11.4 µM; at Fyn, 6.09 to 8.87 µM; on Itk, over 11.4 µM; on EGFR it was 8.87 to 11.4 µM; on Tek, over 11.4 µM; at EPHB4, over 11.4 µM. The IC50 on ErbB4 is 1.01 to 6.09 µM; against Ret-1, over 11.4 µM.

On to `COc1cc(Nc2ncnc(-n3c(NC(C)=O)nc4ccccc43)n2)cc(OC)c1OC` [Compound 334], for which the IC50 at Src is over 10.3 µM; on Fyn it was over 10.3 µM; on Itk, 0.919 to 5.51 µM; at EGFR it was over 10.3 µM; at Tek, over 10.3 µM; on EPHB4, 5.51 to 8.04 µM. The IC50 on ErbB4 was over 10.3 µM; against Ret-1 it was 0.919 to 5.51 µM.

Take `COc1cc(Nc2ncnc(N(c3ccccc3)c3nc4ccccc4[nH]3)n2)cc(OC)c1OC` [Compound 335]: the IC50 at Src is 5.11 to 7.45 µM; at Fyn, over 9.58 µM; on Itk it was over 9.58 µM; at EGFR it was under 0.852 µM; at Tek, over 9.58 µM; on EPHB4 it was 0.852 to 5.11 µM. Further, the IC50 on ErbB4 was over 9.58 µM; against Ret-1, under 0.852 µM.

For the molecule `COc1cc(Nc2ncnc(-n3c(Nc4ccccc4)nc4ccccc43)n2)cc(OC)c1OC` [Compound 336], the IC50 against Src, at Fyn, at Itk, at EGFR, at Tek and at EPHB4 was over 9.58 µM each time. In addition, the figures for the IC50 on ErbB4 and on Ret-1 were over 9.58 µM and under 0.852 µM, respectively.

Regarding `COc1ccc(Nc2ncnc(Nc3cc(-c4ccco4)n[nH]3)n2)cc1OC` [Compound 337], the IC50 at Src was 1.05 to 6.33 µM; on Fyn, 1.05 to 6.33 µM; on Itk it was 1.05 to 6.33 µM; at EGFR, 1.05 to 6.33 µM; on Tek, over 11.9 µM; on EPHB4 it was 1.05 to 6.33 µM. The IC50 at ErbB4 was 1.05 to 6.33 µM; at Ret-1, under 1.05 µM.

`COc1ccc2c(c1)c(CCNC(C)=O)cn2-c1ncnc(Nc2cc(OC)c(OC)c(OC)c2)n1` [Compound 339]: the IC50 on Src, on Fyn, at Itk, on EGFR, on Tek and on EPHB4 was over 9.14 µM throughout. Further, the IC50 is over 9.14 µM at ErbB4 and under 0.812 µM on Ret-1.

The values are drawn from patent US7074789B2, “Kinase inhibitors” (Amgen Inc., priority 1999, dated 2006).
